According to paper PMC12434071, “Platinum-group metal half-sandwich complexes of 1-(α-D-glucopyranosyl)-4-hetaryl-1,2,3-triazoles: synthesis, solution equilibrium studies, and investigation of their anticancer and antimicrobial activities” (Frontiers in Chemistry, 2025):

Assays:
[1] = test system: human primary dermal fibroblasts; assay: MTT reduction assay on human primary dermal fibroblasts; format: cell-based; details: maximal inhibition; 4 h treatment; maximum concentration 100 µM
Protocol: FIGURE 5 The ruthenium, osmium, and iridium complexes of ligands 4a, 4b, and 5a decrease MTT reduction. For MTT assays, 4 × 10^3 A2780 cells, 3 × 10^3 ID8 cells, or 6 × 10^3 human primary fibroblasts were plated into 96-well plates. Cells were treated with the compounds in the concentrations indicated for 4 h. Data are represented as average ± SD, from four biological replicates on A2780, and from three biological replicates on ID8 and human primary fibroblasts. For the datasets of 5a and Os-5a on human primary fibroblasts, the data represent four biological replicates. Individual assays were performed in duplicate. Values were normalized for vehicle-treated cells, and the absorbance for vehicle-treated cells equals 1. Normality was assessed using the D'Agostino-Pearson test. Statistical significance was assessed using a two-way ANOVA test followed by Tukey's post hoc test. For better visibility, normality, transformations, statistical tests, and p values are presented in an MS Excel sheet at https://figshare.com/s/3a0aa60b66f3f746f41e. Color code: black-free ligand (4a,b or 5a), khaki-ruthenium complex (Ru-4a,b), green-iridium complex (Ir-4a,b), blue-osmium complex (Os-4a,b or Os-5a), and red-rhodium complex (Rh-4a,b). An MTT reduction assay measures the activity of mitochondrial complex I and can be used to detect toxicity ([[…] et al., 2016]). The assay was performed in a manner similar to that described by [[…] et al. (2023b)]. Briefly, cells were plated into 96-well plates the day before the assay. Cells were treated with the compounds for 4 h; then, MTT was added to a 0.5 mg/mL final concentration, and cells were incubated at 37°C in a cell incubator for 40-60 min, as a function of the cell line being assessed. The culture medium was removed, the reduced MTT dye was dissolved in dimethylsulfoxide, and plates were measured in a plate photometer (Thermo Scientific Multiscan GO spectrophotometer, Waltham, MA, United States) at 540 nm. […] In calculations, the readings for these wells were considered to 1, and all readings were expressed relative to these values. […]

[2] = test system: human primary dermal fibroblasts; assay: SRB assay on human primary dermal fibroblasts; format: cell-based; details: maximal inhibition; 48 h treatment; maximum concentration 100 µM
Protocol: FIGURE 7 The ruthenium, osmium, and iridium complexes of ligands 4a, 4b, and 5a are cytostatic on ovarian cancer models with a good therapeutic index. For SRB assays, 1.5 × 10^3 A2780 cells, 1.5 × 10^3 ID8 cells, or 4 × 10^3 primary fibroblasts were plated into 96-well plates. Cells were treated with the compounds in the concentrations indicated for 48 h. Data are represented as average ± SD, from four biological replicates on A2780 and human primary fibroblasts, except in the case of Os complexes, where experiments were performed in three biological replicates. ID8 cells were assessed in three biological replicates. Individual assays were performed in duplicate. Values were normalized for vehicle-treated cells, and the absorbance for vehicle-treated cells equals 1. Normality was assessed using the D’Agostino–Pearson test. Statistical significance was assessed using a two-way ANOVA test followed by Tukey’s post hoc test. For better visibility, normality, transformations, statistical tests, and p values are presented in an MS Excel sheet at https://figshare.com/s/3a0aa60b66f3f746f41e. Color code: black—free ligand (4a,b or 5a), khaki—ruthenium complex (Ru-4a,b), blue—osmium complex (Os-4a,b or Os-5a), green—iridium complex (Ir-4a,b), and red—rhodium complex (Rh-4a,b). An SRB assay measures protein content of cells in correlation with the cell number in an assay well and can therefore be used to assess cell proliferation or long-term cytostasis ([Skehan et al., 1990]). Cells were seeded into 96-well plates the day before the treatment for the assay. Cells were treated with the various compounds for 48 h. Then, the medium was removed, and cells were fixed with 10% trichloroacetic acid. Fixed cells were washed in distilled water three times, followed by staining with SRB (0.4 m/V% dissolved in 1% acetic acid) for 10 min. Stained cells were washed in 1% acetic acid five times; the acetic acid was removed, and the cells were left to dry. […] Plates were measured in a plate photometer (Thermo Scientific Multiscan GO spectrophotometer, Waltham, MA, United States) at 540 nm. […]

Compound | Fibroblast MTT max % [1] [%] | Fibroblast SRB max % [2] [%]
O=C(OC[C@H]1O[C@H](n2cc(-c3ccccn3)nn2)[C@H](OC(=O)c2ccccc2)[C@@H](OC(=O)c2ccccc2)[C@@H]1OC(=O)c1ccccc1)c1ccccc1 [Complex 4a, 1-(2’,3’,4’,6’-Tetra-O-benzoyl-α-D-glucopyranosyl)-4-(pyridin-2-yl)-1,2,3-triazole] | 0 | 11.89
O=C(OC[C@H]1O[C@H](n2cc(-c3ccc4ccccc4n3)nn2)[C@H](OC(=O)c2ccccc2)[C@@H](OC(=O)c2ccccc2)[C@@H]1OC(=O)c1ccccc1)c1ccccc1 [Complex 4b, 1-(2’,3’,4’,6’-Tetra-O-benzoyl-α-D-glucopyranosyl)-4-(quinolin-2-yl)-1,2,3-triazole] | 0 | 10.76
CCCCC(=O)OC[C@H]1O[C@H](n2cc(-c3ccccn3)nn2)[C@H](OC(=O)CCCC)[C@@H](OC(=O)CCCC)[C@@H]1OC(=O)CCCC [Complex 5a, 1-(2’,3’,4’,6’-Tetra-O-pentanoyl-α-D-glucopyranosyl)-4-(pyridin-2-yl)-1,2,3-triazole] | 15.72 | 27.97
